Assay results taken from BindingDB's records for doi:10.1016/S1074-5521(00)00104-6 (Axys Pharmaceutical, 2000).

Columns and labels:
Test in all cases: Enzyme Assay and Determination of the Inhibition Constants
Details in all cases: pH 7.4; 22 °C
Tryptase beta-2 = Tryptase beta-2 (Homo sapiens, UniProt P20231)
Method: (§1) Each enzyme was assayed with a set of different concentrations of each inhibitor. […] Ki(apparent) values were calculated from enzyme velocity curves using the software package BatchKi (BioKin Ltd, Madison, WI). These apparent inhibition constants were then converted to Ki values by assuming competitive inhibition and using the formula Ki = Ki(apparent)/(1 + S/Km).

[1] = target: Tissue-type plasminogen activator (Homo sapiens, UniProt P00750)
Tissue-type plasminogen activator, sequence (P00750 whole entry): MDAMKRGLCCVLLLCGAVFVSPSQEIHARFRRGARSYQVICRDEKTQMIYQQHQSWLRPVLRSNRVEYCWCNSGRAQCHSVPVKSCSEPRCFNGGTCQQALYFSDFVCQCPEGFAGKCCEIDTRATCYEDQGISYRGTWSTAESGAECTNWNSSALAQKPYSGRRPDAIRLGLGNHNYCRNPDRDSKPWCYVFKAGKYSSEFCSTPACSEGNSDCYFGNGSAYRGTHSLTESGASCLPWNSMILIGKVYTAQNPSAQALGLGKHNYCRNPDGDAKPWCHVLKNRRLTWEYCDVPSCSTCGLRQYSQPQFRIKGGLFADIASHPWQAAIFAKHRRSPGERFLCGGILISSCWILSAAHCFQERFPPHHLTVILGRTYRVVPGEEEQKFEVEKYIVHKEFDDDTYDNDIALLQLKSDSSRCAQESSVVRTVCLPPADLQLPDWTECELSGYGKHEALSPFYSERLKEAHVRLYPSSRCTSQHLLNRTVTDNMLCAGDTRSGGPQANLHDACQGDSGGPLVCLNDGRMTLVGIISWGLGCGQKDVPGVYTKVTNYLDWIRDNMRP
Method: as §1

Coagulation factor X = Coagulation factor X (Homo sapiens, UniProt P00742)
Coagulation factor X, sequence (P00742 41-179 limits assumed): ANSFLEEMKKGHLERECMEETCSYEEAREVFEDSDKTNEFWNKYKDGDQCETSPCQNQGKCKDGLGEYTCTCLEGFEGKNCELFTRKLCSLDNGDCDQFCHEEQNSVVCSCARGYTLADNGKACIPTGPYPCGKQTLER
Coagulation factor X, sequence (P00742 235-488 limits assumed): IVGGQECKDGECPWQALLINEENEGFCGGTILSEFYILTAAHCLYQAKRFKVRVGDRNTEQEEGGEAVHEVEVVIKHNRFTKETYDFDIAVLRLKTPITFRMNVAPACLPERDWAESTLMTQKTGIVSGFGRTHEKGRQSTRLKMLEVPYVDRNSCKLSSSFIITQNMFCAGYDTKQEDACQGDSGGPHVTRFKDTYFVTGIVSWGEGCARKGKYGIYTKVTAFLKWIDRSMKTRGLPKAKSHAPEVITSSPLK
Method: as §1

[2] = target: Urokinase-type plasminogen activator (Homo sapiens, UniProt P00749)
Method: as §1

Prothrombin = Prothrombin (Homo sapiens, UniProt P00734)
Method: as §1

Tryptase beta-2, sequence (P20231 as listed by the source): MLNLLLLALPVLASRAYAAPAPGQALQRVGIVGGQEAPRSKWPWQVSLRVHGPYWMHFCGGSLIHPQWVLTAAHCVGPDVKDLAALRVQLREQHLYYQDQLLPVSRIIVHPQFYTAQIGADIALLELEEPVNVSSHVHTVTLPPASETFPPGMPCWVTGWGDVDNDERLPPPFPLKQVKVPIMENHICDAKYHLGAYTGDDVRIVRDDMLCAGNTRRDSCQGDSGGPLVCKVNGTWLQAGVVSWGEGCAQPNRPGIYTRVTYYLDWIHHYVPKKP

Structure (SMILES)	Ki (Tryptase beta-2)	Ki [1]	Ki (Coagulation factor X)	Ki [2]	Ki (Prothrombin)
N=C(N)c1cc2c(I)cccc2s1 [CA-01]	1.5 µM	16.8 µM	30 µM	–	–
N=C(N)c1cc2ccccc2s1 [Benzo[b]thiophene-2-carboxamidine]	9.9 µM	15 µM	21 µM	2.3 µM	58 µM
N=C(N)c1ccccc1 [Benzamidine]	–	–	110 µM	–	–
N=C(N)c1cc2cccnc2s1 [[amino(thieno[2,3-b]pyridin-2-yl)methylidene]azanium]	34 µM	1800 µM	360 µM	–	1600 µM
